Legend:
ISC-enriched organoids [1] = test: Primary screen, 384-well 2.5-D organoid differentiation (ENR+CD, 6 days): carbachol-induced lysozyme secretion (LYZ.S); assay type: cell-based, murine; settings: for Dose.FC.LYZ.S: ENR+CD, 6 days, FC vs plate median; for Z.LYZ.S: standard z score; for Z.LYZ.S / SSMD.LYZ.S: primary screen; for SSMD.LYZ.S: strictly standardized mean difference; for Dose.FC.LYZ.S (log 2 fold change, carbachol-induced lysozyme secretion): vs plate median
Source text: (§1) High-throughput screening.

ISC-enriched organoids [2] = test: Primary screen, 384-well 2.5-D organoid differentiation (ENR+CD, 6 days, Target Selective Inhibitor Library, vs whole-plate median): ATP (CellTiter-Glo 3D, CTG); settings: for Dose.FC.CTG: ENR+CD, 6 days, FC vs plate median; for SSMD.CTG: strictly standardized mean difference; for Dose.FC.CTG (log 2 fold change, ATP): vs plate median
ISC-enriched organoids [3] = test: Primary screen, 384-well 2.5-D organoid differentiation (ENR+CD, 6 days): basal lysozyme secretion (LYZ.NS); assay type: cell-based, murine; settings: for Dose.FC.LYZ.NS: ENR+CD, 6 days, FC vs plate median; for Z.LYZ.NS: standard z score of FC; for SSMD.LYZ.NS: strictly standardized mean difference, primary screen; for Dose.FC.LYZ.NS (log 2 fold change, basal lysozyme secretion): vs plate median
Source text: as §1

[4] = Dose 10.00 uM, standard z score of FC
[5] = 1st of the 4 dose lines of the treatment (dose not given)
[6] = 2nd of the 4 dose lines of the treatment (dose not given)
[7] = 3rd of the 4 dose lines of the treatment (dose not given)
[8] = 4th of the 4 dose lines of the treatment (dose not given)

C[C@@H]1C(=O)O[C@H]2C[C@@]34[C@H]5C[C@@H](C(C)(C)C)[C@]36[C@@H](OC(=O)[C@@H]6O)O[C@@]4(C(=O)O5)[C@]21O [Ginkgolide A]
Dose.FC.LYZ.S (ISC-enriched organoids [1]; Dose 0.08 uM): 0.124 log 2 fold change
Dose.FC.LYZ.S (ISC-enriched organoids [1]; Dose 0.40 uM): 0.161 log 2 fold change
Dose.FC.LYZ.S (ISC-enriched organoids [1]; Dose 2.00 uM): 0.002 log 2 fold change
Dose.FC.LYZ.S (ISC-enriched organoids [1]; Dose 10.00 uM): −0.028 log 2 fold change
Dose.FC.CTG (ISC-enriched organoids [2]; Dose 0.08 uM): 0.005 log 2 fold change
Z.CTG (ISC-enriched organoids [2]; Dose 0.08 uM, standard z score of FC): 0.011
Dose.FC.CTG (ISC-enriched organoids [2]; Dose 0.40 uM): −0.017 log 2 fold change
Z.CTG (ISC-enriched organoids [2]; Dose 0.40 uM, standard z score of FC): −0.040
Dose.FC.CTG (ISC-enriched organoids [2]; Dose 2.00 uM): 0.040 log 2 fold change
Z.CTG (ISC-enriched organoids [2]; Dose 2.00 uM, standard z score of FC): 0.095
Dose.FC.CTG (ISC-enriched organoids [2]; Dose 10.00 uM): −0.012 log 2 fold change
Z.CTG (ISC-enriched organoids [2]; [4]): −0.028
Dose.FC.LYZ.NS (ISC-enriched organoids [3]; Dose 0.08 uM): 0.045 log 2 fold change
Z.LYZ.NS (ISC-enriched organoids [3]; Dose 0.08 uM): 0.395
Dose.FC.LYZ.NS (ISC-enriched organoids [3]; Dose 0.40 uM): 0.025 log 2 fold change
Z.LYZ.NS (ISC-enriched organoids [3]; Dose 0.40 uM): 0.222
Dose.FC.LYZ.NS (ISC-enriched organoids [3]; Dose 2.00 uM): 0.030 log 2 fold change
Z.LYZ.NS (ISC-enriched organoids [3]; Dose 2.00 uM): 0.258
Dose.FC.LYZ.NS (ISC-enriched organoids [3]; Dose 10.00 uM): 0.052 log 2 fold change
Z.LYZ.NS (ISC-enriched organoids [3]; Dose 10.00 uM): 0.450

CN(Cc1cnc2nc(N)nc(N)c2n1)c1ccc(C(=O)N[C@@H](CCC(=O)O)C(=O)O)cc1 [Methotrexate]
Z.LYZ.S (ISC-enriched organoids [1]; [5]): −1.029
Z.LYZ.S (ISC-enriched organoids [1]; [6]): −0.831
Z.LYZ.S (ISC-enriched organoids [1]; [7]): −1.143
Z.LYZ.S (ISC-enriched organoids [1]; [8]): −1.007
SSMD.LYZ.S (ISC-enriched organoids [1]; [5]): −0.943
SSMD.LYZ.S (ISC-enriched organoids [1]; [6]): −0.627
SSMD.LYZ.S (ISC-enriched organoids [1]; [7]): −0.866
SSMD.LYZ.S (ISC-enriched organoids [1]; [8]): −0.718
Z.CTG (ISC-enriched organoids [2]; Dose 0.08 uM, primary screen, standard z score): −1.469
Z.CTG (ISC-enriched organoids [2]; Dose 0.40 uM, primary screen, standard z score): −1.724
Z.CTG (ISC-enriched organoids [2]; Dose 2.00 uM, primary screen, standard z score): −1.674
Z.CTG (ISC-enriched organoids [2]; [4]): −1.534
SSMD.CTG (ISC-enriched organoids [2]; primary screen, 1st of the 4 dose lines of the treatment (dose not given)): −1.489
SSMD.CTG (ISC-enriched organoids [2]; primary screen, 2nd of the 4 dose lines of the treatment (dose not given)): −1.028
SSMD.CTG (ISC-enriched organoids [2]; primary screen, 3rd of the 4 dose lines of the treatment (dose not given)): −1.982
SSMD.CTG (ISC-enriched organoids [2]; primary screen, 4th of the 4 dose lines of the treatment (dose not given)): −1.176
SSMD.LYZ.NS (ISC-enriched organoids [3]; [5]): −0.745
SSMD.LYZ.NS (ISC-enriched organoids [3]; [6]): −0.349
SSMD.LYZ.NS (ISC-enriched organoids [3]; [7]): −1.130
SSMD.LYZ.NS (ISC-enriched organoids [3]; [8]): −0.527

O=C(O[C@H]1C[C@H]2CC[C@@H](C1)[N+]21CCCC1)C(O)(c1ccccc1)c1ccccc1 [Trospium chloride]
Dose.FC.LYZ.S (log 2 fold change, carbachol-induced lysozyme secretion) (ISC-enriched organoids [1]; dose 0.08 uM): 0.119
Dose.FC.LYZ.S (log 2 fold change, carbachol-induced lysozyme secretion) (ISC-enriched organoids [1]; dose 0.40 uM): 0.117
Dose.FC.LYZ.S (log 2 fold change, carbachol-induced lysozyme secretion) (ISC-enriched organoids [1]; dose 2.00 uM): −0.008
Dose.FC.LYZ.S (log 2 fold change, carbachol-induced lysozyme secretion) (ISC-enriched organoids [1]; dose 10.00 uM): 0.084
Z.CTG (standard z score) (ISC-enriched organoids [2]; dose 0.08 uM): 0.199
Dose.FC.CTG (log 2 fold change, ATP) (ISC-enriched organoids [2]; dose 0.08 uM): 0.083
Z.CTG (standard z score) (ISC-enriched organoids [2]; dose 0.40 uM): −0.073
Dose.FC.CTG (log 2 fold change, ATP) (ISC-enriched organoids [2]; dose 0.40 uM): −0.031
Z.CTG (standard z score) (ISC-enriched organoids [2]; dose 2.00 uM): 0.477
Dose.FC.CTG (log 2 fold change, ATP) (ISC-enriched organoids [2]; dose 2.00 uM): 0.200
Z.CTG (standard z score) (ISC-enriched organoids [2]; dose 10.00 uM): 0.354
Dose.FC.CTG (log 2 fold change, ATP) (ISC-enriched organoids [2]; dose 10.00 uM): 0.148
Z.LYZ.NS (standard z score) (ISC-enriched organoids [3]; dose 0.08 uM): 1.470
Dose.FC.LYZ.NS (log 2 fold change, basal lysozyme secretion) (ISC-enriched organoids [3]; dose 0.08 uM): 0.169
Z.LYZ.NS (standard z score) (ISC-enriched organoids [3]; dose 0.40 uM): 1.895
Dose.FC.LYZ.NS (log 2 fold change, basal lysozyme secretion) (ISC-enriched organoids [3]; dose 0.40 uM): 0.218
Z.LYZ.NS (standard z score) (ISC-enriched organoids [3]; dose 2.00 uM): −0.017
Dose.FC.LYZ.NS (log 2 fold change, basal lysozyme secretion) (ISC-enriched organoids [3]; dose 2.00 uM): −0.002
Z.LYZ.NS (standard z score) (ISC-enriched organoids [3]; dose 10.00 uM): 0.885
Dose.FC.LYZ.NS (log 2 fold change, basal lysozyme secretion) (ISC-enriched organoids [3]; dose 10.00 uM): 0.102

Reference: patent US20230398130A1, “METHODS AND COMPOSITIONS FOR DIFFERENTIATING STEM CELLS” (Massachusetts Institute of Technology, priority 2020, published 2023)
